US12187728B2 (Raze Therapeutics, Inc., priority 2015, dated 2025)

Molecular target: T1, Human MTHFD2 (Homo sapiens, UniProt P13995)
T1 construct: residues 36-350 in Uniport ID P13995; His6 (N); made in house; host or cells: E. coli
T1 sequence (P13995 36-350): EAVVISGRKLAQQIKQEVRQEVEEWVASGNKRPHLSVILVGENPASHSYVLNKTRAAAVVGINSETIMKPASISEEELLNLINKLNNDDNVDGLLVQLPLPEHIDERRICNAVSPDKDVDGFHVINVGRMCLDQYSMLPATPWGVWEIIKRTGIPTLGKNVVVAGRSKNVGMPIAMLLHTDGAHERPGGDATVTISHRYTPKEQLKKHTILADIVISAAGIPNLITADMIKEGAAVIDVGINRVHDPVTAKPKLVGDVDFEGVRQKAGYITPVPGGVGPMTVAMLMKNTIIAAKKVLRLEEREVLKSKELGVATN
Test: MTHFD2 Activity Assay (dehydrogenase activity, diaphorase/resazurin coupled fluorescence)
Format: biochemical
Details: inhibitory activity (IC50 and/or binding constant); 0.2 nM MTHFD2, 11 concentrations
Outline: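 His6-tagged MTHFD2 (res. 36-350), E. coli-expressed, at 0.2 nM preincubated with compound 15 min in Hepes pH 8.0/MgCl2/KH2PO4 buffer; 70 μM CH2-THF, 1 mM NAD+ added with resazurin/diaphorase, 30 min, EDTA stop. Resorufin fluorescence (ex 525/em 598); IC50 from 11-point 4-parameter fit.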

SMILES	IC50
Cn1c(Nc2ccnc(CCC(=O)O)n2)nc2c1c(=O)n(Cc1cc3c(Cl)cccc3[nH]1)c(=O)n2C [Example 355, 3-(4-(1-((4-chloro-1H-indol-2-yl)methyl)-3,7-dimethyl-2,6-dioxo-2,3,6,7-tetrahydro-1H-purin-8-ylamino)pyrimidin-2-yl)propanoic acid]	0.01 to 1 µM
Cn1c(Nc2ccc(C(N)=O)nc2)nc2c1c(=O)n(Cc1cc3c(Cl)cccc3[nH]1)c(=O)n2C [Example 409, 5-(1-((4-chloro-1H-indol-2-yl)methyl)-3,7-dimethyl-2,6-dioxo-2,3,6,7-tetrahydro-1H-purin-8-ylamino)picolinamide]	0.01 to 1 µM
Cn1c(CN)nc2c1c(=O)n(Cc1cc3c(Cl)cccc3[nH]1)c(=O)n2C [Example 358, 8-(aminomethyl)-1-[(4-chloro-1H-indol-2-yl)methyl]-3,7-dimethyl-purine-2,6-dione]	0.01 to 1 µM
Cn1cnc2c1c(=O)n(Cc1cc3cc(Cl)ccc3[nH]1)c(=O)n2C [Example 240, 1-((5-chloro-1H-indol-2-yl)methyl)-3,7-dimethyl-1H-purine-2,6(3H,7H)-dione]	1 to 5 µM
Cn1c(Nc2cccc(C#N)c2)nc2c1c(=O)n(Cc1ccc(Cl)c(Cl)c1)c(=O)n2C [Example 130, 3-(1-(3,4-dichlorobenzyl)-3,7-dimethyl-2,6-dioxo-2,3,6,7-tetrahydro-1H-purin-8-ylamino)benzonitrile]	1 to 5 µM
Cn1c(Nc2cccc(CCC(=O)O)n2)nc2c1c(=O)n(Cc1ccc(Cl)c(Cl)c1)c(=O)n2C [Example 282, 3-(6-(1-(3,4-dichlorobenzyl)-3,7-dimethyl-2,6-dioxo-2,3,6,7-tetrahydro-1H-purin-8-ylamino)pyridin-2-yl)propanoic acid]	0.01 to 1 µM
Cn1c(C(N)C2CCOCC2)nc2c1c(=O)n(Cc1cc3c(Cl)cccc3[nH]1)c(=O)n2C (centres unmarked) [Example 454, 8-[amino(tetrahydropyran-4-yl)methyl]-1-[(4-chloro-1H-indol-2-yl)methyl]-3,7-dimethyl-purine-2,6-dione]	0.01 to 1 µM
Cn1c(NCCC(C)(C)O)nc2c1c(=O)n(Cc1ccc(Cl)c(Cl)c1)c(=O)n2C [Example 45, 1-[(3,4-dichlorophenyl)methyl]-8-[(3-hydroxy-3-methylbutyl)amino]-3,7-dimethyl-2,3,6,7-tetrahydro-1H-purine-2,6-dione]	0.01 to 1 µM

Next, values leading:

IC50	SMILES
1 to 5 µM	Cn1c(Nc2ccccc2)nc2c1c(=O)n(Cc1ccc(Cl)c(Cl)c1)c(=O)n2C [Example 127, 1-(3,4-dichlorobenzyl)-3,7-dimethyl-8-(phenylamino)-1H-purine-2,6(3H,7H)-dione]
0.01 to 1 µM	CCC(N)c1nc2c(c(=O)n(Cc3cc4c(Cl)cccc4[nH]3)c(=O)n2C)n1C (centres unmarked) [Example 434, 8-(1-aminopropyl)-1-[(4-chloro-1H-indol-2-yl)methyl]-3,7-dimethyl-purine-2,6-dione]
0.01 to 1 µM	Cn1c(=O)n(Cc2ccc(Cl)c(Cl)c2)c(=O)c2c1nc(NC1CCCC(C(=O)O)C1)n2CCN (centres unmarked) [Example 369, 3-(7-(2-aminoethyl)-1-(3,4-dichlorobenzyl)-3-methyl-2,6-dioxo-2,3,6,7-tetrahydro-1H-purin-8-ylamino)cyclohexanecarboxylic acid]
0.01 to 1 µM	Cn1c(NC2CNC(=O)C2)nc2c1c(=O)n(Cc1ccc(Cl)c(Cl)c1)c(=O)n2C (racemic) [Example 88, (±)-1-[(3,4-dichlorophenyl)methyl]-3,7-dimethyl-8-[(5-oxopyrrolidin-3-yl)amino]-2,3,6,7-tetrahydro-1H-purine-2,6-dione]
0.01 to 1 µM	Cn1c(C(N)C2CC2)nc2c1c(=O)n(Cc1cc3c(Cl)cccc3[nH]1)c(=O)n2C (centres unmarked) [Example 444, 8-[amino(cyclopropyl)methyl]-1-[(4-chloro-1H-indol-2-yl)methyl]-3,7-dimethyl-purine-2,6-dione]
0.01 to 1 µM	Cn1c(NCC(N)=O)nc2c1c(=O)n(Cc1cc3c(Cl)cccc3[nH]1)c(=O)n2C [Example 360, 2-(1-((4-chloro-1H-indol-2-yl)methyl)-3,7-dimethyl-2,6-dioxo-2,3,6,7-tetrahydro-1H-purin-8-ylamino)acetamide]
